# Values quoted from earlier work, collected in patent publication US7101912B2, “Carbidopa prodrugs and derivatives, and compositions and uses thereof” (XenoPort, Inc., priority 2002, dated 2006).
# What was measured:
# [1] = rats
SMILES,absorption following rectal administration [1],conversion of the prodrug to levodopa in rat plasma (following absorption from an intestinal loop),levels of levodopa (rat plasma following absorption from an intestinal loop)
C[C@@](Cc1ccc(O)c(O)c1)(NN)C(=O)O [carbidopa],poor,–,–
CC(C)(C)C(=O)Oc1ccc(C[C@H](N)C(=O)O)cc1O [NB-355],–,slow,low
